According to patent publication US12459922B2 (Gilead Sciences, Inc., priority 2022, dated 2025):

How the values were obtained:
[1] = target: T1, PARP7 (Homo sapiens, UniProt Q7Z3E1); experiment: Probe Displacement Assay for PARP7 (MSD electrochemiluminescent, biotinylated probe RBNO11147); details: displacement of biotinylated probe RBNO11147 from PARP7 NAD+-binding site; read-out: MSD ProbeDisp PARP7 IC50
T1 sequence (Q7Z3E1 1-657): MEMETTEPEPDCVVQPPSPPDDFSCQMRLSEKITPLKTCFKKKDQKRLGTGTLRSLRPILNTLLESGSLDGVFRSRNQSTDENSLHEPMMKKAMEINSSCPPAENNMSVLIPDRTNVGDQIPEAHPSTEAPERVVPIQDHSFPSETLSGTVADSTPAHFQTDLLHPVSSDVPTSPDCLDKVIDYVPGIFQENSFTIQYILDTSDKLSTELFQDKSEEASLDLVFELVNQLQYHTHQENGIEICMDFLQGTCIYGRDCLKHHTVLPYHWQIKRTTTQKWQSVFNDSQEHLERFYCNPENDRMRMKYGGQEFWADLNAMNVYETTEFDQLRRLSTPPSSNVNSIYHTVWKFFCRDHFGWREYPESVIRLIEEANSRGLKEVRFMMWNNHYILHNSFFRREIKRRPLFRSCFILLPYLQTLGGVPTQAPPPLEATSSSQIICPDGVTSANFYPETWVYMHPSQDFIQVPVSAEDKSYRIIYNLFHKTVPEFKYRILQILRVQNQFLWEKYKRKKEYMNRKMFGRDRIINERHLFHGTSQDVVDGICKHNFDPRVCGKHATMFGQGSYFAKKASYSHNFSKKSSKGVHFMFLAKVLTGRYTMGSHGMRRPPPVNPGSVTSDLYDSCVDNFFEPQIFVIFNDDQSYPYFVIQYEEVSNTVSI
Experimental: Displacement of a biotinylated probe (RBNO11147; Wigle et al., Cell Chemical Biology, 2020, pp. 877-887) from the PARP7 NAD+-binding site was measured in vitro using a Mesoscale Discovery electrochemiluminescent assay. […] Next, 10 ml of 10 nM PARP7 protein incubated for 1 hour at room temperature with a dose response curve of each test compound in a Greiner LDV polypropylene plate (#781201) is added to the MSD plate containing the immobilized probe. The interaction is allowed to reach equilibrium for 1.5 hours, and then 10 ml of SULFO-TAG labeled anti-GST antibody (Cat #R32AA-1) is added to each well and allowed to incubate for an additional 1.5 hours at room temperature. Finally, 10 ml of MSD read buffer T (4×, Cat. #R92C-1) is added to each well using a Bravo liquid handler to prevent air bubbles in the wells, and the plates are subsequently read in an MSD instrument. Light intensity is then measured to quantify the amount of PARP7 bound to the immobilized probe on the plate.

[2] = system: endogenous cellular STAT1 (phosphorylated at Tyr701) in NCI-H1373 cells; experiment: Phospho-STAT1 (Tyr701) LANCE Ultra TR-FRET Detection Assay; type: cell-based; details: Homo sapiens, NCI-H1373, 48 h, phospho-STAT1 (Tyr701) induction, read-out: NH1373 pSTAT1 EC50

| Compound | IC50 [1] [µM] | EC50 [2] [µM] |
| --- | --- | --- |
| C[C@@H](CCCn1ccc2cc(-c3ncc(C(F)(F)F)c(N4C[C@H](O)C[C@@H]4C)n3)c(F)cc2c1=O)Nc1cn[nH]c(=O)c1C(F)(F)F [Example 313, 7-fluoro-6-(4-((2S,4R)-4-hydroxy-2-methylpyrrolidin-1-yl)-5-(trifluoromethyl)pyrimidin-2-yl)-2-((S)-4-((6-oxo-5-(trifluoromethyl)-1,6-dihydropyridazin-4-yl)amino)pentyl)isoquinolin-1(2H)-one] | 0.000192 | 0.0184 |
| O=c1[nH]ncc(N[C@@H](CO)CCCn2ccc3cc(-c4ncc(C(F)(F)F)cn4)c(F)c(F)c3c2=O)c1C(F)(F)F [Example 163, 7,8-difluoro-2-[(4R)-5-hydroxy-4-[[6-oxo-5-(trifluoromethyl)-1H-pyridazin-4-yl]amino]pentyl]-6-[5-(trifluoromethyl)pyrimidin-2-yl]isoquinolin-1-one] | 0.000341 | 0.0628 |
| Nc1nc(-c2cc3ccn(CCC[C@H](COC(F)F)Nc4cn[nH]c(=O)c4C(F)(F)F)c(=O)c3cc2F)ccc1C(F)(F)F [Example 380, (R)-6-(6-amino-5-(trifluoromethyl)pyridin-2-yl)-2-(5-(difluoromethoxy)-4-((6-oxo-5-(trifluoromethyl)-1,6-dihydropyridazin-4-yl)amino)pentyl)-7-fluoroisoquinolin-1(2H)-one] | 0.000211 | 0.00488 |
| C[C@@H](CCCn1c(=O)[nH]c2cc(-c3ncc(C(F)(F)F)cn3)c(F)cc2c1=O)Nc1cn[nH]c(=O)c1C(F)(F)F [Example 30, 6-fluoro-3-[(4S)-4-[[6-oxo-5-(trifluoromethyl)-1H-pyridazin-4-yl]amino]pentyl]-7-[5-(trifluoromethyl)pyrimidin-2-yl]-1H-quinazoline-2,4-dione] | 0.0003 | 0.0186 |
| C[C@@H](CCCn1ccc2cc(-c3nc(C(F)F)cs3)c(F)cc2c1=O)Nc1cn[nH]c(=O)c1C(F)(F)F [Example 301, (S)-6-(4-(difluoromethyl)thiazol-2-yl)-7-fluoro-2-(4-((6-oxo-5-(trifluoromethyl)-1,6-dihydropyridazin-4-yl)amino)pentyl)isoquinolin-1(2H)-one] | 0.000508 | 0.549 |
| C[C@@H](CCCn1ccc2cc(-c3ccc(C#N)cn3)cc(F)c2c1=O)Nc1cn[nH]c(=O)c1C(F)(F)F [Example 18, (S)-6-(8-fluoro-1-oxo-2-(4-((6-oxo-5-(trifluoromethyl)-1,6-dihydropyridazin-4-yl)amino)pentyl)-1,2-dihydroisoquinolin-6-yl)nicotinonitrile] | 0.0004 | 0.164 |
| C[C@@H](CCCn1ccc2cc(-c3ncc(OC(F)F)cn3)c(F)cc2c1=O)Nc1cn[nH]c(=O)c1C(F)(F)F [Example 42, 6-[5-(difluoromethoxy)pyrimidin-2-yl]-7-fluoro-2-[(4S)-4-[[6-oxo-5-(trifluoromethyl)-1H-pyridazin-4-yl]amino]pentyl]isoquinolin-1-one] | 0.001 | 0.133 |
| Cc1cc(NC2CC2)nc(-c2cc3ccn(CCC[C@H](C)Nc4cn[nH]c(=O)c4C(F)(F)F)c(=O)c3cc2F)n1 [Example 310, (S)-6-(4-(cyclopropylamino)-6-methylpyrimidin-2-yl)-7-fluoro-2-(4-((6-oxo-5-(trifluoromethyl)-1,6-dihydropyridazin-4-yl)amino)pentyl)isoquinolin-1(2H)-one] | 0.0013 | 0.91 |
| C[C@@H](CCCn1ccc2cc(-c3ccc(OC(F)(F)F)cn3)c(F)cc2c1=O)Nc1cn[nH]c(=O)c1C(F)(F)F [Example 32, 7-fluoro-2-[(4S)-4-[[6-oxo-5-(trifluoromethyl)-1H-pyridazin-4-yl]amino]pentyl]-6-[5-(trifluoromethoxy)-2-pyridyl]isoquinolin-1-one] | 0.0026 | 0.187 |
| C[C@@H](CCCn1ccc2cc(-c3ncc4cn[nH]c4n3)c(F)cc2c1=O)Nc1cn[nH]c(=O)c1C(F)(F)F [Example 299, (S)-7-fluoro-2-(4-((6-oxo-5-(trifluoromethyl)-1,6-dihydropyridazin-4-yl)amino)pentyl)-6-(1H-pyrazolo[3,4-d]pyrimidin-6-yl)isoquinolin-1(2H)-one] | 0.000221 | 0.031 |
| C[C@@H](CCCn1ccc2cc(-c3ncc(C(F)(F)F)cn3)cnc2c1=O)Nc1cn[nH]c(=O)c1C(F)(F)F [Example 12, 7-[(4S)-4-[[6-oxo-5-(trifluoromethyl)-1H-pyridazin-4-yl]amino]pentyl]-3-[5-(trifluoromethyl)pyrimidin-2-yl]-1,7-naphthyridin-8-one] | 0.023 | 10 |
| C[C@@H](CCCn1cnc2cc(-c3ccc(F)cn3)c(F)cc2c1=O)Nc1cn[nH]c(=O)c1C(F)(F)F [Example 59, (S)-6-fluoro-7-(5-fluoropyridin-2-yl)-3-(4-((6-oxo-5-(trifluoromethyl)-1,6-dihydropyridazin-4-yl)amino)pentyl)quinazolin-4(3H)-one] | 0.00082 | 0.386 |
| C[C@@H](CCCn1ccc2cc(-c3ncc(C(F)(F)F)cn3)cc(F)c2c1=O)Nc1cn[nH]c(=O)c1C(F)(F)F [Example 7, 8-fluoro-2-[(4S)-4-[[6-oxo-5-(trifluoromethyl)-1H-pyridazin-4-yl]amino]pentyl]-6-[5-(trifluoromethyl)pyrimidin-2-yl]isoquinolin-1-one] | 0.0003 | 0.0613 |
| CC(=O)c1c(N[C@@H](C)CCCn2ccc3cc(-c4ncc(C(F)(F)F)cn4)ccc3c2=O)cn[nH]c1=O [Example 15, 2-[(4S)-4-[(5-acetyl-6-oxo-1H-pyridazin-4-yl)amino]pentyl]-6-[5-(trifluoromethyl)pyrimidin-2-yl]isoquinolin-1-one] | 0.0003 | 0.576 |
